The values below come from US20210380547A1, “UREA DERIVATIVES FOR TREATING AND/OR PREVENTING CANCER” (CENTRE NATIONAL DE LA RECHERCHE SCIENTIFIQUE, priority 2018, published 2021).

By EC50 is commonly meant the concentration giving half of the maximal effect.

For series [1], the system named is CXCL7-dependent HuVEC migration. In words: Boyden chamber migration assay, CXCL7-dependent. The format is cell-based. To be noted: CXCL7 (50 ng/ml). Here is the method: CXCL7 or VEGFA-stimulated chemotaxis assays were monitored using modified Boyden chambers containing polycarbonate membranes (8-μm pores, Transwell; Corning, Sigma). Cells were seeded on the upper side of the filters and chambers were placed on 24-well plates containing CXCL7 (50 ng/ml) or VEGFA (50 ng/ml). Cells were allowed to migrate for 24 hr at 37° C. in 5% CO2. Migratory cells on the lower membrane surface were fixed in 3% paraformaldehyde, stained with 0.1% crystal violet.

The subject of the next series is K562. As to the kind of experiment: XTT cell viability assay, K562. The format is cell-based, human. To be noted: Homo sapiens, K562; XTT assay (48 h); standard deviation of 10%; read-out: EC50 (μM) CML K562. The method, then:
(§1) Fifty microliters of sodium 3′-[1-phenylaminocarbonyl)-3,4-tetrazolium]-bis(4-methoxy-6-nitro) benzene sulfonic acid hydrate (XTT) reagent was added to each well. The assay is based on the cleavage of the yellow tetrazolium salt XTT to form an orange formazan dye by metabolically active cells. The absorbance of the formazan product, reflecting cell viability, was measured at 490 nm. Each assay was performed in quadruplicate.
(§2) Compounds #1-#14 have been assayed as potential anti-proliferative agents against a panel of human breast head and neck, and kidney tumor cells and hematological malignancies, selected on the basis of their aggressiveness (e.g. incurable triple-negative breast cancer cells: MDA-MB-231; kidney ccRCC cells: RCC4, A498 and 786-O and 786R; head and neck cancer cells: CAL33, CAL33RR, CAL27, and CAL27RR; acute myeloid cell lines: OCI-AML2, OCI-AML3, MolM13, and MolM14; myelodysplastic cell line: SM1; and chronic myeloid cell line: CML). All these cell lines share as common denominator the expression of CXCR1 and CXCR2. The EC50 values have been measured by a XTT colorimetric assay, and compared to those of SB-225002, used as a reference; the results are listed in Table 1.
(In general: Tetrazolium dyes change colour on reduction, which living cells bring about.)

For another series, the system named is 786-O. As to the kind of experiment: XTT cell viability assay, 786-O. The format is cell-based, human. To be noted: Homo sapiens, 786-0; XTT assay (48 h); standard deviation of 10%; read-out: EC50 (μM) Kidney 786-O. The method, then:
(§3) A, B: Naive (786-O, A), and sunitinib-resistant (786-R, B) 786-O cells, were treated with compound #1 or sunitinib (1 to 10 μM) for 48 hr. Cell viability was measured by XTT assays;
(§4) D, E: 786-O (D), 786-R (E), were treated with 2.5 μM compound #1 or 2.5 μM sunitinib for 24 h to 96 h. The cells metabolism was measured by XTT assay;
as §1, §2

In another series the test system is A498. In words: XTT cell viability assay, A498. It is filed as cell-based, human. To be noted: Homo sapiens, A498; XTT assay (48 h); standard deviation of 10%; read-out: EC50 (μM) Kidney A498. Here is the method:
as §1, §2

Series [2] has as its system macular degeneration model. As to the kind of experiment: Macular degeneration model, clinical angiography. The format is in vivo, mice. As to conditions: Day 14, intraperitoneal 400 μg 3 times a week. Here is the method: FIG. 9: Evaluation of compounds #1 and #3 on macular degeneration. Clinical angiography at Day 14: Evaluation of the intensity of the lesion by a score from 0 to 3 (0: no leak; 1: light intensity; 2: moderate intensity; 3: immense marking) on mice treated with compounds #1 and #3. The intensities of the lesions were reported, each point corresponding to a lesion. Three lesions were performed on the eyes of each mouse; […]. • 4 groups of 12 mice were induced on the eyes by laser burnt as follows: • G1: vehicle; • G2 and G3: Compounds #1 and #3: intraperitoneal injection of 400 μg of product 3 times a week; and • G4: dexamethasone (2 mg/kg/day) orally. Clinical angiography at Day 14 on the 12 animals: evaluation of the intensity of the lesion by a score of 0 to 3 (0 no leak, 1=light intensity, 2=moderate intensity, 3=intense marking).

Another series relates to OCI-AML3. As to the kind of experiment: XTT cell viability assay, OCI-AML3. The format is cell-based, human. As to conditions: Homo sapiens, OCI-AML-3; XTT assay (48 h); standard deviation of 10%. Here is the method: as §1, §2
In the next series the test system is SKM1. As to the kind of experiment: XTT cell viability assay, SKM1. The format is cell-based, human. As to conditions: Homo sapiens, SKM-1; XTT assay (48 h); standard deviation of 10%; read-out: EC50 (μM) MDS SKM1. Here is the method: as §1, §2
A further series concerns RCC4. As to the kind of experiment: XTT cell viability assay, RCC4. It is filed as cell-based. To be noted: Homo sapiens, XTT assay (48 h), standard deviation of 10%, read-out: EC50 (μM) Kidney RCC4. The method, then:
as §1, §2

The subject of another series is MolM13. As to the kind of experiment: XTT cell viability assay, MolM13. As to conditions: Homo sapiens, MOLM-13; XTT assay (48 h); standard deviation of 10%; read-out: EC50 (μM) AML MolM13. The format is cell-based, human. The method, then:
as §1, §2

The test system of a further series is MolM14. As to the kind of experiment: XTT cell viability assay, MolM14. The format is cell-based, human. As to conditions: Homo sapiens, MOLM-14; XTT assay (48 h); standard deviation of 10%; read-out: EC50 (μM) AML MolM14. Here is the method:
as §1, §2

A further series relates to MDA-MB-231. As to the kind of experiment: XTT cell viability assay, MDA-MB-231. To be noted: Homo sapiens, XTT assay (48 h), standard deviation of 10%, read-out: EC50 (μM) Breast MDA-MB-231. The format is cell-based. Here is the method: as §1, §2
A further series has as its system OCI-AML2. In words: XTT cell viability assay, OCI-AML2. It is filed as cell-based, human. As to conditions: Homo sapiens, OCI-AML2; XTT assay (48 h); standard deviation of 10%; read-out: EC50 (μM) AML OCI-AML2. Here is the method:
as §1, §2

Series [3] relates to healthy human fibroblasts (FHN). In words: FACS analysis of cell death markers (AV, PI), healthy fibroblasts. The format is cell-based. To be noted: 5 μM, 48 h. Here is the method:
(§5) FIG. 1: Observation by FACS analyses of early (Annexin AV) and late (Propidium Iodide, PI) apoptosis markers expressed by healthy and malignant cells after treatment with compounds #1 and #2 at 5 μM. CT: negative control.
(§6) Apoptosis analysis: After stimulation, cells were washed with ice-cold PBS and were stained with the annexin-V-fluos staining kit (Roche, Meylan, France) according to the manufacturer's procedure. Fluorescence was measured by using the FL2 (AV) and FL3 (propidium iodide, PI) channels of a fluorescence-activated cell sorter apparatus (Calibur cytometer).
(§7) To complete these XTT assays, malignant (ccRCC and hematological) and healthy (human fibroblasts FHN) cells have been grown with compounds #1 or #2, and after 48h the expression of cell death markers (AV and PI) has been quantified by FACS analyses (FIG. 1).
(In flow cytometry, cells or beads pass a laser one at a time.)

A further series has as its system 786R. As to the kind of experiment: XTT cell viability assay, 786R (sunitinib-resistant). It is filed as cell-based, human. To be noted: Homo sapiens, 48 h, XTT assay (48 h); sunitinib-resistant; standard deviation of 10%; read-out: EC50 (μM) Kidney 786R. Here is the method: as §3, §4, §1, §2
Series [4] relates to malignant (ccRCC and hematological) cells. As to the kind of experiment: FACS analysis of cell death markers (AV, PI), malignant cells. The format is cell-based, human. To be noted: 5 μM, 48 h. The method, then: as §5, §6, §7
Another series relates to CAL27RR. In words: XTT cell viability assay, CAL27RR (cisplatin-resistant). The format is cell-based, human. As to conditions: Homo sapiens, light or radiation study; XTT assay (48 h); resistant to irradiation and cisplatin; standard deviation of 10%; read-out: EC50 (μM) Head and Neck CAL27RR. The method, then:
(§8) A, B: Naive (Cal27, A), and cisplatine-resistant (Cal27R, B) Cal27 cells, were treated with compound #1 or cisplatine (1 to 10 μM) for 48 hr. Cell viability was measured by XTT assays;
(§9) C, D: Cal27 (C), cal27R (D), were treated with 2.5 μM compound #1, 2.5 μM cisplatin for 24 h to 96 h. The metabolism of cells was measured by XTT assay.
as §1, §2

The test system of the next series is CAL27. As to the kind of experiment: XTT cell viability assay, CAL27. As to conditions: Homo sapiens, CAL-27, 48 h, XTT assay (48 h); standard deviation of 10%; read-out: EC50 (μM) Head and Neck CAL27. It is filed as cell-based, human. The method, then: as §8, §9, §1, §2
The next series deals with CAL33. As to the kind of experiment: XTT cell viability assay, CAL33. The format is cell-based. As to conditions: Homo sapiens, CAL-33; XTT assay (48 h); standard deviation of 10%; read-out: EC50 (μM) Head and Neck CAL33. The method, then:
as §1, §2

The subject of another series is CAL33RR. In words: XTT cell viability assay, CAL33RR. As to conditions: Homo sapiens, light or radiation study; XTT assay (48 h); resistant to irradiation and cisplatin; standard deviation of 10%; read-out: EC50 (μM) Head and Neck CAL33RR. The format is cell-based. The method, then:
as §1, §2

SMILES strings stand for the structures.

Consider `Cc1c(F)cccc1NC(=O)Nc1ccc(Cl)c(S(=O)(=O)[C@H]2CCCNC2)c1O` [danirixin, reference compound], for which, in series [1], the “reduction of HuVEC CXCL7-dependent motility (comparison)” value is given as “less efficient than compound #1”.
With `CCOc1ccc2nc(NC(=O)Nc3ccccc3C)sc2c1` [Compound #3, 1-(6-ethoxybenzo[d]thiazol-2-yl)-3-(o-tolyl)urea], the EC50 in the series with K562 is 4 µM; with 786-O it was 15 µM; with A498, 15 µM; in the series on OCI-AML3, 7 µM; in the series with SKM1 it was 15 µM; with RCC4 it was greater than 25 µM. Besides, the EC50 in the series with MolM13 was found to be 15 µM; in the series on MolM14, 10 µM; in the series with MDA-MB-231, 12 µM; in the series with OCI-AML2 it was 15 µM. Also, in series [2], the “intensity of the lesion (score 0 to 3), clinical angiography” value was “significant effect”.
In the case of `O=C(Nc1nc2ccc([N+](=O)[O-])cc2s1)Nc1ccccc1Cl` [Compound #2, 1-(2-chlorophenyl)-3-(6-nitrobenzo[d]thiazol-2-yl)urea], the half-maximal effective concentration (EC50) was determined as 7 µM in the series on K562; 5 µM in the series on 786-O; 5 µM in the series with A498; 8 µM in the series with 786R; 10 µM in the series on OCI-AML3; 10 µM with SKM1. In addition, the EC50 with RCC4 is 7 µM; with MolM13 it was 5 µM; in the series on MolM14, 10 µM; with MDA-MB-231, 8 µM; in the series with OCI-AML2, 10 µM. Besides, the “apoptosis of healthy human fibroblasts (FHN)” value in series [3] is “no increased apoptosis over the control experiment”. In series [4], the “early (AV) and late (PI) apoptosis markers on malignant cells” value is reported as “cytotoxic effect on malignant cells”.
Turning to `O=C(Nc1ccc(Br)cc1)Nc1nc2ccc([N+](=O)[O-])cc2s1` [Compound #12, 1-(4-bromophenyl)-3-(6-nitrobenzo[d]thiazol-2-yl)urea], the EC50 was 5 µM in the series on 786-O; 2.5 µM in the series on CAL27RR; 5 µM in the series on CAL27; 7 µM in the series on A498; 5 µM in the series with 786R; less than 2.5 µM in the series with CAL33. The values for the EC50 in the series with RCC4 and in the series on CAL33RR were 7 µM and 20 µM, respectively.
